Test [1] has as its target SRSF protein kinase 1 (Homo sapiens, UniProt Q96SB4). Put plainly: Inhibition of SRPK-1 (unknown origin).
A short description of test [2]: Inhibition of HBV RNA polymerase. Details: species or system Hepatitis B virus.
Test [3] has as its system Hepatitis B virus. Put plainly: Antiviral activity against Hepatitis B virus assessed as inhibition of HBV DNA replication. The test is classed as functional, organism-based.
Test [4] deals with Hepatitis B virus. Put plainly: Antiviral activity against HBV infected in human HepAD38 cells assessed as inhibition of viral replication. Type of test: functional, organism-based.
For test [5], the system named is Hepatitis B virus. Put plainly: Antiviral activity against HBV infected in human HepG2.2.15 cells assessed as reduction in viral DNA levels incubated for 6 days by PCR analysis. The test is classed as functional, organism-based. To be noted: HepG2.2.15, 144 h.
Test [6] deals with Hepatitis B virus. Kind of test: Antiviral activity against wild type HBV infected in HepG2.2.15 cells assessed as reduction in viral replication. The test is classed as functional, organism-based.
For test [7], the system named is Hepatitis B virus. Put plainly: Antiviral activity against HBV infected in human HepDES19 cells assessed as inhibition of extracellular HBV DNA by qPCR analysis. The test is classed as functional, organism-based. Background: In qPCR the cycle at which signal appears reflects the starting amount.
The test system of test [8] is Hepatitis B virus. Kind of test: Antiviral activity against HBV infected in human HepG2.117 cells assessed as reduction in intracellular DNA level by RT-qPCR analysis. Type of test: functional, organism-based.
Test [9] relates to Hepatitis B virus. Kind of test: Antiviral activity against HBV infected in human Primary hepatocyte assessed as reduction in HBV replication. Type of test: functional, organism-based.
Test [10] has as its target T1, NAD-dependent protein deacetylase sirtuin-2 (Homo sapiens, UniProt Q8IXJ6).
T1 sequence (Q8IXJ6 whole entry): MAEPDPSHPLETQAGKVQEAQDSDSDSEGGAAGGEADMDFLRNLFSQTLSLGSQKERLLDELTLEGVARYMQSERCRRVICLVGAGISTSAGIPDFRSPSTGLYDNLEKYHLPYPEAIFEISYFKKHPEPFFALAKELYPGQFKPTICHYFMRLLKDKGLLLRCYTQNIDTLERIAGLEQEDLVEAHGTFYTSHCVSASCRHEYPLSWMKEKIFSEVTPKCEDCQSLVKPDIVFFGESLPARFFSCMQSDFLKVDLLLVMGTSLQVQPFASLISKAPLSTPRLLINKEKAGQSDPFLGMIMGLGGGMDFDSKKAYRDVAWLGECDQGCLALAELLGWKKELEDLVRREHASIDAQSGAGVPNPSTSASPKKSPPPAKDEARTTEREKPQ
Put plainly: Inhibition of SIRT2 (unknown origin).

Test [11] has as its system HepG2 2.2.15. Kind of test: Cytotoxicity against human HepG2.2.15 cells assessed as reduction in cell viability by CellTiter-Blue reagent based analysis. The test is classed as functional. (The colour change of resazurin is a common sign of viable cells or microbes.)
Test [12] addresses T2, Hepatic sodium/bile acid cotransporter (Homo sapiens, UniProt Q14973).
T2 sequence (Q14973 whole entry): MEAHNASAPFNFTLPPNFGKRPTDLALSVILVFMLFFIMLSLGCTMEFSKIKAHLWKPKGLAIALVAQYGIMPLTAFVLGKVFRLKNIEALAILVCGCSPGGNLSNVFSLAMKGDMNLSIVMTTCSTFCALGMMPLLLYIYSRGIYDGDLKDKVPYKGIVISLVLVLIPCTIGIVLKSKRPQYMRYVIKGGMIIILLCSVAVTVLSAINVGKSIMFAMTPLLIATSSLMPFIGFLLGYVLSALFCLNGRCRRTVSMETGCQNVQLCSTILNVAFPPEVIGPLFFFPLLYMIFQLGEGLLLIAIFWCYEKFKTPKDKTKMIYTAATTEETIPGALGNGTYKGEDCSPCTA
Kind of test: Inhibition of NTCP (unknown origin).

For test [13], the target named is Lysine-specific demethylase 5B (Homo sapiens, UniProt Q9UGL1). Put plainly: Inhibition of KDM5B (unknown origin).
The subject of test [14] is Hepatitis B virus. Put plainly: Antiviral activity against HBV infected in human HepG2.2.15 cells. Type of test: functional, organism-based.
Test [15] concerns Hepatitis B virus. Kind of test: Antiviral activity against Hepatitis B virus ayw1 infected in human HepG2 2.2.15 cells assessed as reduction in viral DNA replication incubated for 6 days by qPCR analysis. To be noted: ayw1, HepG2 2.2.15, 144 h. The test is classed as functional, organism-based.
In test [16] the test system is Hepatitis B virus. Kind of test: Antiviral activity against HBV infected in human HepG2-hNTCP cells assessed as reduction in HBV DNA replication by qRT-PCR analysis. The test is classed as functional, organism-based.
For test [17], the target named is Triosephosphate isomerase (Homo sapiens, UniProt P60174). Kind of test: Inhibition of TPI1 (unknown origin).

IC50 and EC50 data for 24 molecules are collected here from ChEMBL document CHEMBL6127056, “Novel mechanistic insights - A brand new Era for anti-HBV drugs” (Eur J Med Chem, 2024).

Values after ≈ are worked out from the molar mass of the structure shown.

Triosephosphate isomerase, sequence (P60174 whole entry): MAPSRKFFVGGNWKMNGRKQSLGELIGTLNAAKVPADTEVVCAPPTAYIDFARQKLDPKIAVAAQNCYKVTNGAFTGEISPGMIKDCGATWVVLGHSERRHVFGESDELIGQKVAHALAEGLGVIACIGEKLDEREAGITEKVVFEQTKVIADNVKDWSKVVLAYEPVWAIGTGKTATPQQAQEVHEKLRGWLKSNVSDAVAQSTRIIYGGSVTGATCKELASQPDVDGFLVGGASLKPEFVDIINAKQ
SRSF protein kinase 1, sequence (Q96SB4 whole entry): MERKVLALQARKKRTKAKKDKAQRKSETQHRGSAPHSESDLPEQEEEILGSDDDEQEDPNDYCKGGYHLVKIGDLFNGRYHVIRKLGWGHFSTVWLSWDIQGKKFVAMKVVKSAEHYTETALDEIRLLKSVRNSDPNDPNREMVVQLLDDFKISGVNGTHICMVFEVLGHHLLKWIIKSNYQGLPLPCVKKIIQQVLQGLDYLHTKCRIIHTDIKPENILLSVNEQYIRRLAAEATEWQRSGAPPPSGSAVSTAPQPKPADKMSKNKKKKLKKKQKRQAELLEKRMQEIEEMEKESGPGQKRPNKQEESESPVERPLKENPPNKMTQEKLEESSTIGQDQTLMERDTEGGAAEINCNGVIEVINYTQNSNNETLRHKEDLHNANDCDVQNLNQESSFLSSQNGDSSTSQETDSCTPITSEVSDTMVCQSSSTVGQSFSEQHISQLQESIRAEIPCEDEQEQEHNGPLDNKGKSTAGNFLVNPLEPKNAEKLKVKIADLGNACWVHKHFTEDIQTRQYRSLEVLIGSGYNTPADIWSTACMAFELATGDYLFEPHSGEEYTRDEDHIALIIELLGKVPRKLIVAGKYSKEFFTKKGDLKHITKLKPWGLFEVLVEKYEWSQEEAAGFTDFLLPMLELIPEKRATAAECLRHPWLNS
Lysine-specific demethylase 5B, sequence (Q9UGL1 whole entry): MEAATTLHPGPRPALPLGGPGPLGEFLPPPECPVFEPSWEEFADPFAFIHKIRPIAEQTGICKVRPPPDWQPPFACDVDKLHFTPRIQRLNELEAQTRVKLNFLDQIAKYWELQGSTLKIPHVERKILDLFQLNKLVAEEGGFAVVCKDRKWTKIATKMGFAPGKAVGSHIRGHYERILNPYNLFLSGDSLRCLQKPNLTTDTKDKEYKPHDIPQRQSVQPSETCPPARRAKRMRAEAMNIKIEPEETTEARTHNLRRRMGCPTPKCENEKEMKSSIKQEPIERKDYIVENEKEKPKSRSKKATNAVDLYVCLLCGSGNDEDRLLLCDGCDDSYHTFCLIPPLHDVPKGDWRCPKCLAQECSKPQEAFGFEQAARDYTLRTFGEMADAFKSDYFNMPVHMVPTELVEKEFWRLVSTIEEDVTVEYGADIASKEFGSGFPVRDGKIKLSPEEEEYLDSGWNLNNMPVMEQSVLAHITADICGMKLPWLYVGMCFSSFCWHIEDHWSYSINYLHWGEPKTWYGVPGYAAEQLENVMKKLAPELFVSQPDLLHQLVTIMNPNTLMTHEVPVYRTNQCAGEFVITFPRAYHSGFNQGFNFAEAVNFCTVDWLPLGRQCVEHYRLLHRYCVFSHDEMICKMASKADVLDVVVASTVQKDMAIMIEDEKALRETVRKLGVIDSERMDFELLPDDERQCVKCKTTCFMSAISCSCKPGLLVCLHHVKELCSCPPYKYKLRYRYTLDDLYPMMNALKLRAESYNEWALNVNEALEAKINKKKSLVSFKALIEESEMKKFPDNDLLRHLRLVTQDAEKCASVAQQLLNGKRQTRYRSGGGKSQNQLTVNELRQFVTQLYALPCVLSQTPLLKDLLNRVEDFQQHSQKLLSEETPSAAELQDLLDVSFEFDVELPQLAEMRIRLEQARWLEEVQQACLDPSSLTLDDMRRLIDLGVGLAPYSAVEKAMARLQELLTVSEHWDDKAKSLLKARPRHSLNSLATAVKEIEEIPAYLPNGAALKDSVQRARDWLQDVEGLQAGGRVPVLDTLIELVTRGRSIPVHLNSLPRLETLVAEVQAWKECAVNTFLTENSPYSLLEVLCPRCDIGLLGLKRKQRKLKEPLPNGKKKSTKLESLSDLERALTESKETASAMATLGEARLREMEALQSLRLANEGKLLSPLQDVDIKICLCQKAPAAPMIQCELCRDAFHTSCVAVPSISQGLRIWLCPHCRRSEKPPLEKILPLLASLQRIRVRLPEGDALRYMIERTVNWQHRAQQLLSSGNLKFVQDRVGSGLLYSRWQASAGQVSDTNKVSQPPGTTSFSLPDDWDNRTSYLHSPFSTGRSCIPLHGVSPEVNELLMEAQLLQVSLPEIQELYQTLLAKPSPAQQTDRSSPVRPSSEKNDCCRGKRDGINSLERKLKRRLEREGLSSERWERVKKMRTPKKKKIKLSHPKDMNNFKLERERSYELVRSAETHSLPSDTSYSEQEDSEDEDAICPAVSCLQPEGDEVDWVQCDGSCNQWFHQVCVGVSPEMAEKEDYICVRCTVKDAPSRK

As to `CCc1cc2c(cc1-c1cccc(S(=O)(=O)F)c1)C(C)(C)c1[nH]c3cc(C#N)ccc3c1C2=O`, in test [1], 9400 nM corresponded to half-maximal inhibition (IC50).
As to `O=C(Nc1ccc2c(=O)c3cccc(F)c3oc2c1)c1ccccc1`, in test [2], the IC50 – broadly, the concentration needed to halve the response being measured – worked out at 1890 nM.
Turning to `Cc1ccc2[nH]c(CCNc3nccc(-c4ccccn4)n3)nc2c1C`, in [3], the EC50 (commonly the concentration at which the effect is half-maximal) is more than 10000 nM.
As for `NCCCC(=O)NCc1nc(-c2cccc(F)c2)c(-c2ccccn2)[nH]1`, the EC50 in [3] is more than 10000 nM.
Turning to `CCOC(=O)c1ccnc(CNCC(=O)N(CC)CCN(C)C)c1`, the concentration for a half-maximal effect (EC50) in [4] was found to be 34 nM.
In the case of `O=C(Nc1ccc(F)c(C(F)F)c1)C1c2ccccc2NCC1CN1CCC(F)(F)CC1` (stereo not given), the EC50 in test [5] is 100 nM.
For the molecule `O=c1ccc2cc3ccoc3cc2o1` [PSORALEN], in test [6], the EC50 came out at 63700 nM.
For the molecule `CCOC(=O)C1=C(CN2CCN(C(C(=O)O)c3ccoc3)CC2)NC(c2nccs2)=NC1c1ccc(F)cc1Br` (stereo not given), the EC50 in test [7] is more than 10000 nM.
On the same count and under the same terms, the value for `CCOC(=O)C1=C(CN2CCN(C(C(=O)O)c3cccc([N+](=O)[O-])c3)CC2)NC(c2nccs2)=NC1c1ccc(F)cc1Br` (stereo not given) was 24 nM.
For the molecule `CC(C)OC(=O)[C@H](C)NP(=O)(OC[C@@]1(F)CO[C@@H](n2cnc3c(N)ncnc32)[C@@H]1CO)Oc1ccccc1` (stereo not given in full), the EC50 in test [8] was found to be 80 nM.
As for `Cn1cnc(COC(=O)N[C@H]2CCc3c(C(=O)Nc4ccc(F)c(Cl)c4)ccc(F)c32)n1`, the EC50 in [9] worked out at 630 nM.
Turning to `Cc1cn(-c2ccc3c(c2)CN(c2ncc(Cc4ccc(-n5cccn5)cc4)s2)CC3)c(C)n1`, the IC50 in test [10] is less than 620 nM.
Turning to `COc1cc(C[C@@H]2CO[C@@H](c3ccc(O)c(OC)c3)[C@@H]2CO)ccc1O` [(-)-Lariciresinol], the EC50 in test [6] stood at 42600 nM.
For `N#Cc1ccc(Cn2nc(-c3ccc(C(F)(F)F)nc3F)c3ccccc3c2=O)cc1`, the IC50 in [11] was 200 nM.
On to `COc1cc([C@H]2c3cc4c(cc3[C@H](n3cc(CO[C@H]5CC[C@]6(C)[C@H]7CC=C8[C@@H]9CC(C)(C)CC[C@]9(C(=O)O)CC[C@@]8(C)[C@]7(C)CC[C@H]6C5(C)C)nn3)[C@H]3COC(=O)[C@H]23)OCO4)cc(OC)c1OC`, for which, in test [12], it took 70 nM to reach half-maximal inhibition (IC50).
As to `O=C(Nc1ccc(F)c(Cl)c1)c1cc(S(=O)(=O)NC2CCCC2)cc2c1OCCO2`, the half-maximal effective concentration (EC50) in test [5] was found to be 500 nM.
For `CCN(CCN(C)C)C(=O)CNCc1cc(C(=O)O)ccn1`, the IC50 in [13] worked out at 380 nM.
In turn, `O=c1cc(-c2ccc(O)c(-c3c(O)cc(O)c4c(=O)cc(-c5ccc(O)cc5)oc34)c2)oc2cc(O)cc(O)c12` [AMENTOFLAVONE] registered an EC50 in [14] of 48.6 µg/mL (≈ 90.3 µM).
Consider `COC(=O)C1=C(C)NC(c2ncc(F)cc2F)=N[C@H]1c1ccc(F)cc1Cl`, for which the EC50 in test [15] stood at 23 nM.
With `Cc1cc(/N=N/c2ccc(S(=O)(=O)Nc3ccccn3)cc2)c(N)cc1O`, the EC50 in test [4] was found to be 15600 nM.
`C=C(C)[C@@H]1CC[C@]2(C(=O)NCc3cn([C@H]4c5cc6c(cc5[C@H](c5cc(OC)c(OC)c(OC)c5)[C@H]5C(=O)OC[C@@H]54)OCO6)nn3)CC[C@@]3(C)[C@]4(C)CC[C@H]5C(C)(C)[C@@H](O)CC[C@]5(C)[C@H]4CC[C@]3(C)[C@@H]12` registered a 50% inhibitory concentration (IC50) in test [12] of 790 nM.
As for `Cc1nc(-c2c(-c3ccccc3)ncn2Cc2cccc3[nH]ccc23)c[nH]1`, the concentration for a half-maximal effect (EC50) in test [3] turned out to be 10000 nM.
Consider `COc1cc2c(O[C@@H]3OC[C@](O)(CO[C@@H]4OC[C@@H](O)[C@H](O)[C@H]4O)[C@H]3O[C@@H]3OC[C@H](O)[C@H](O)[C@H]3O)c3c(c(-c4ccc5c(c4)OCO5)c2cc1OC)C(=O)OC3` [CILIATOSIDE A], for which the EC50 in test [16] amounted to 5130 nM; in [9], 3360 nM.
Consider `CCCCCCCc1cc(OC(=O)c2c(CCCCCCC)cc(O)cc2O[C@H]2O[C@@H](CO)[C@H](O)[C@@H](O)[C@@H]2O)cc(O)c1C(=O)O`, for which, in test [17], half-maximal inhibition (IC50) was put at 1700 nM.
